{"source": "patent US4386103A", "about": "“Dichloroamino acid derivatives useful as potent germicidal and fungicidal agents” (Merck & Co., Inc., priority 1981, dated 1983)", "key": {"Candida albican": {"tested_on": "Candida albican", "assay": "Contact fungicidal screen, Candida albican", "assay_type": "cell-based", "settings": "0.1M NaOAc pH 4.6", "method": "(§1) The organisms used in the Contact Fungicidal Screen are a dermatophyte, trychophyton mentagrophytes, frequently associated with athlete's foot; a yeast, Candida albican, causative agent of thrush and vaginitis; a phycomycete, Rhizopus oryzae, commonly known as black bread mold; an ascomycete, Aspergillus fumagatis, found in chicken droppings and causing lung infections; and another dermatophyte, Microsporum canis, which causes ringworm. These organisms are maintained as stock cultures at 4° C. on agar slants of the following composition: dextrose 2%, Neopeptone (Difco) 1%, agar 2%. Fluid medium of the same nutrient composition (without agar) was used to test the viability of the organisms after exposure to the fungicide. This medium is also known as Sabouraud's medium.\nThe Candida albican is grown in Sabouraud's liquid medium at 25°-30° C. for three days. At the end of the incubation period the cell suspension is centrifuged at 200 G and washed with sterile physiological saline (0.85% NaCl). The density of the cell suspension is determined by counting in a hemacytometer. The suspension is stored a 4° C. until it is used, at which time it is diluted with sterile physiological saline to a density of 5×10^6 cells per ml.\n(§2) The compounds are weighed into heat sterilized 100 ml volumetric flasks and immediately before screening dissolved in 0.1 M NaOAc pH 4.6 buffer (test solutions).\n(§3) The Aspergillus, Candida, Microsporum and Rhizopus species are screened in a slightly different manner. Basically, the procedure for the Contact Germicidal Efficiency Screen is utilized. After the test solutions are made up, 5 ml aliquots are pipetted into heat sterilized 25 ml glass stoppered erlenmeyer flasks. The screen is initiated when 0.5 ml of the 5×10^6 cell (spore) per ml suspension is added to the flask containing 5 ml of the test solution. At intervals of 0.5, 2.5, 5.0, 10.0 and 15.0 minutes, a 4 mm loopful of the inoculated test solution is subcultured into 7 mL of sterile fluid Sabouraud's medium and mixed on a vortex, the high dilution serving to stop the action of the compound. The subculture tubes are incubated at 25°-30° C. for ten days with daily observation for mycelial growth. The earliest subculture time at which no growth is present is considered the endpoint and is recorded as the sterilization time.\n(§4) To insure the viability of the culture, a 0.5 ml aliquot of the 5×10^6 cells (spores) per ml suspension is transferred to 5 ml of the pH 4.6 buffer. A loopful of the inoculated buffer is then subcultured to 7 ml of fluid Sabouraud's medium and incubated at 25°-30° C. for ten days. To insure that the dilution of the test solution into the subculture medium does stop the action, a loopful of the test solution and a loopful of the inoculated buffer are transferred into the same subculture tube. This tube is also incubated at 25°-30° C. for ten days."}, "Aspergillus fumigatus": {"tested_on": "Aspergillus fumigatus", "assay": "Contact fungicidal screen, Aspergillus fumigatus", "assay_type": "cell-based", "settings": "0.1M NaOAc pH 4.6", "method": "(§5) The organisms used in the Contact Fungicidal Screen are a dermatophyte, trychophyton mentagrophytes, frequently associated with athlete's foot; a yeast, Candida albican, causative agent of thrush and vaginitis; a phycomycete, Rhizopus oryzae, commonly known as black bread mold; an ascomycete, Aspergillus fumagatis, found in chicken droppings and causing lung infections; and another dermatophyte, Microsporum canis, which causes ringworm. These organisms are maintained as stock cultures at 4° C. on agar […] of the following composition: dextrose 2%, Neopeptone (Difco) 1%, agar 2%. Fluid medium of the same nutrient composition (without agar) was used to test the viability of the organisms after exposure to the fungicide. This medium is also known as Sabouraud's medium. Sabouraud's agar plate cultures of Aspergillus fumigatus, Microsporum canis, and a different culture of Trychophyton mentagrophytes are prepared by planting an inoculum at the center of an agar plate and incubating at 25°-30° C. for seven to ten days. The mycelial mats are removed from the surface of the agar and prepared in the same manner as the Rhizopus culture. The compounds are weighed into heat sterilized 100 ml volumetric flasks and immediately before screening dissolved in 0.1 M NaOAc pH 4.6 buffer (test solutions). The Aspergillus, Candida, Microsporum and Rhizopus species are screened in a slightly different manner. Basically, the procedure for the Contact Germicidal Efficiency Screen is utilized. After the test solutions are made up, 5 ml aliquots are pipetted into heat sterilized 25 ml glass stoppered erlenmeyer flasks. The screen is initiated when 0.5 ml of the 5×10^6 cell (spore) per ml suspension is added to the flask containing 5 ml of the test solution. […] The subculture tubes are incubated at 25°-30° C. for ten days with daily observation for mycelial growth. The earliest subculture time at which no growth is present is considered the endpoint and is recorded as the sterilization time. To insure the viability of the culture, a 0.5 ml aliquot of the 5×10^6 cells (spores) per ml suspension is transferred to 5 ml of the pH 4.6 buffer. A loopful of the inoculated buffer is then subcultured to 7 ml of fluid Sabouraud's medium and incubated at 25°-30° C. for ten days. To insure that the dilution of the test solution into the subculture medium does stop the action, a loopful of the test solution and a loopful of the inoculated buffer are transferred into the same subculture tube. This tube is also incubated at 25°-30° C. for ten days."}, "Rhizopus oryzae": {"tested_on": "Rhizopus oryzae", "assay": "Contact fungicidal screen, Rhizopus oryzae", "assay_type": "cell-based", "settings": "0.1M NaOAc pH 4.6", "method": "as §1\n[…]. The mycelial mat is removed from the surface of the agar using a sterile spatula. It is transferred to a heat sterilized glass tissue grinder and macerated with 25 ml of sterile physiological saline. The suspension is then filtered through sterile glass wool. The density of the sporangia spore suspension is determined by counting in a hemacytometer. The suspension is stored at 4° C. until it was used, at which time it was diluted with sterile physiological saline to a density of 5×10^6 spores per ml.\nas §2, §3, §4"}, "Microsporum canis": {"tested_on": "Microsporum canis", "assay": "Contact fungicidal screen, Microsporum canis", "assay_type": "cell-based", "settings": "0.1M NaOAc pH 4.6", "method": "as §5"}, "[1]": {"assay": "Stability of chloroamino acids in pH 4 acetate buffer at 34° C.", "assay_type": "physicochemical", "settings": "for half-life: read-out: Stability (t1/2) (converted)", "description": "The effect of this distance on stability in aqueous medium is illustrated in the following table."}, "pseudomonas organisms": {"tested_on": "pseudomonas organisms", "settings": "cited from earlier work"}, "[2]": {"tested_on": "Gram-positive and Gram-negative organisms", "settings": "cited from earlier work"}, "[3]": {"settings": "animal tests; cited from earlier work"}, "Gram-negative organisms": {"tested_on": "Gram-negative organisms", "settings": "cited from earlier work"}}}
{"smiles": "CC(C)(CCCCC(=O)O)N(Cl)Cl", "note": "[(VI), 6-Dichloroamino-6-methyl-heptanoic acid]", "values": [{"measurement": "Sterilization Time", "setting": "Candida albican; 10 PPM", "result": 15, "unit": "min"}, {"measurement": "Sterilization Time", "setting": "Candida albican; 100 PPM", "result": 2.5, "unit": "min"}, {"measurement": "Sterilization Time", "setting": "Candida albican; 1000 PPM", "result": 0.5, "unit": "min"}, {"measurement": "Sterilization Time", "setting": "Aspergillus fumigatus; 10 PPM", "result": 15, "unit": "min"}, {"measurement": "Sterilization Time", "setting": "Aspergillus fumigatus; 100 PPM", "result": 15, "unit": "min"}, {"measurement": "Sterilization Time", "setting": "Aspergillus fumigatus; 1000 PPM", "result": 5.0, "unit": "min"}, {"measurement": "Sterilization Time", "setting": "Rhizopus oryzae; 10 PPM", "result": 15, "unit": "min"}, {"measurement": "Sterilization Time", "setting": "Rhizopus oryzae; 100 PPM", "result": 15, "unit": "min"}, {"measurement": "Sterilization Time", "setting": "Rhizopus oryzae; 1000 PPM", "result": 15, "unit": "min"}, {"measurement": "Sterilization Time", "setting": "Microsporum canis; 10 PPM", "result": 10.0, "unit": "min"}, {"measurement": "Sterilization Time", "setting": "Microsporum canis; 100 PPM", "result": 2.5, "unit": "min"}, {"measurement": "Sterilization Time", "setting": "Microsporum canis; 1000 PPM", "result": 0.5, "unit": "min"}]}
{"smiles": "CC(C)(C(=O)O)N(Cl)Cl", "note": "[Z = nothing]", "values": [{"measurement": "Stability (in words)", "setting": "[1]", "result": "violent decomposition"}]}
{"smiles": "CC(C)(COC(=O)CCC(=O)O)N(Cl)Cl", "note": "[drawing 17]", "values": [{"measurement": "half-life", "setting": "[1]", "result": 300, "unit": "days"}]}
{"smiles": "[H]/N=C(\\N/C(=N/[H])NCCCCCCNC(=N)NC(=N)Nc1ccc(Cl)cc1)Nc1ccc(Cl)cc1", "note": "[Chlorhexidine]", "values": [{"measurement": "activity against pseudomonas organisms", "setting": "pseudomonas organisms", "result": "not effective against pseudomonas organisms"}, {"measurement": "activity against Gram-positive and Gram-negative organisms", "setting": "[2]", "result": "generally effective against Gram-positive and Gram-negative oganisms"}]}
{"smiles": "Oc1c(Cl)cc(Cl)c(Cl)c1Cc1c(O)c(Cl)cc(Cl)c1Cl", "note": "[Hexachlorophene]", "values": [{"measurement": "neurotoxicity", "setting": "[3]", "result": "caused neurotoxicity"}, {"measurement": "activity against Gram-negative organisms", "setting": "Gram-negative organisms", "result": "ineffective against Gram-negative organisms"}]}
{"smiles": "CC(C)(CC(=O)O)N(Cl)Cl", "note": "[Z = CH2]", "values": [{"measurement": "half-life", "setting": "[1]", "result": 1.21, "unit": "days"}]}
{"smiles": "CC(C)(CCC(=O)O)N(Cl)Cl", "note": "[Z = CH2 CH2]", "values": [{"measurement": "half-life", "setting": "[1]", "result": 57, "unit": "days"}]}
